Test results reported in patent US10928381B2, “In vitro methods of monitoring autophagy in a human cell using a photoconvertable fluorescent protein linked biomarker” (The Regents of the University of Michigan, priority 2018, dated 2021).
Entries after “also recorded” stand apart in the source; their conditions may differ.

How the values were obtained:
Dendra2-LC3 HEK cells = assay: Optical pulse labeling: time-dependent decay of photoconverted (red, RFP/TRITC) Dendra2-LC3 as measure of autophagic flux; format: cell-based, human; design: key to Hit class in screen of Enzo Autophagy compound library (9H RFP/0H RFP): enhancer: [Sample9H RFP/OH RFP]<[DMSO9H RFP/OH RFP−3SDDMSO]; inhibitor: [Sample9H RFP/OH RFP]>[DMSO9H RFP/OH RFP 3SDDMSO]; details: for Effect on torin1-induced Dendra2-LC3 degradation: co-treatment with torin1; for Effect on torin1-induced Dendra2-LC3 degradation / Degradation (decay) of photoconverted Dendra2-LC3: red channel; for Dose dependence of effect on Dendra2-LC3 decay: increasing concentrations, RFP and GFP channels; for Degradation (decay) of photoconverted Dendra2-LC3: vs DMSO, Torin1 1 uM, Bafilomycin-A1 10 nM
Protocol: FIGS. 8A-E. Time dependent decay of Dendra2-LC3 as an assay of autophagic flux. (FIG. 8A) Dendra2-LC3 reporter cells were imaged prior to photoconversion to measure background TRITC intensity. Immediately following photoconversion with a 5 second pulse of […] light, cells were treated with DMSO, 1 uM Torin1, or 10 nM Bafilomycin-A1 and then were subsequently imaged at the indicated time points. Images are psuedocolored to better highlight intensity differences. (FIGS. 8B-E) Time dependent changes in photoconverted Dendra2-LC3 fluorescence in the TRITC (FIGS. 8B, D) and GFP (FIGS. 8C, E) channels. Gray boxes represent the pre and post-photoconversion time points. TRITC intensity values are normalized, setting the background intensity prior to conversion to 0 and the post-conversion value to 1. GFP values are normalized to the pre-conversion intensity. Error bars represent the SEM from three replicate experiments. […] (FIG. 8C) Following photoconversion there is a 40% drop in GFP intensity. As new Dendra2-LC3 is synthesized, GFP levels return to pre-photoconversion levels over the span of 13.5 hours. […] Cells were transfected with 20 nM ATG5 siRNA two days prior to imaging.
FIG. 9A-C. Evaluating the efficacy of known autophagy modulators. (FIG. 9A) An unbiased screen of the Enzo Autophagy compound library identified several known autophagy compounds as hits providing construct validity to the assay. Rapamycin, NVP-BEZ235 and AKT inhibitor X, were among the compounds appropriately identified as enhancers while Bafilomycin registered as an inhibitor. […] Cells were imaged in RFP to measure background fluorescence, then photoconverted with a 4 second DAPI exposure and immediately imaged again to establish the postconversion intensity. Drugs from the Enzo Autophagy library were added at a concentration of 10 uM via a robotic liquid handler. 9 hours later the cells were imaged again in order to assess the efficacy of the drugs. Hits were defined as follows: enhancer: [Sample9H RFP/OH RFP]<[DMSO9H RFP/OH RFP−3SDDMSO], inhibitor: [Sample9H RFP/OH RFP]>[DMSO9H RFP/OH RFP 3SDDMSO]. […] Imaging of the compound library was repeated in GFP. Intensity values are reported 15 hours after drug treatment. (FIG. 9C) The reduction in Dendra2-LC3 half-life observed upon treatment of autophagic flux enhancers is attenuated with partial knockdown of ATG5. Cells were transfected with 20 nM ATG5 siRNA 2 days prior to imaging. Error bars represent SEM from three replicate experiments.
Experiments were conducted during development of embodiments herein to develop a sensitive method—optical pulse labeling (OPL)—that takes advantage of the photoconvertible fluorescent protein Dendra2 for estimations of autophagic flux in cellulo (Refs 14, 34; herein incorporated by reference in their entireties) (FIG. 1b). […] Dendra2 was fused to LC3, a specific marker of autophagosomes and itself an autophagy substrate (Refs. 27, 31; herein incorporated by reference in their entireties). Following photoconversion, the time-dependent reduction in red LC3-Dendra2 (FIG. 1c) is used to calculate protein half-life, representing an estimate of autophagy flux for individual cells (Refs. 14, 34; herein incorporated by reference in their entireties) Furthermore, because LC3 is degraded as autophagosomes mature, the return to steady-state levels of green Dendra2-LC3 after photoconversion (FIG. 1d) reflects activity within the pathway as a whole. The assay is noninvasive, permitting longitudinal analyses of autophagy kinetics in living cells, and amenable to HTS.
For these studies the potent mTOR inhibitor torin1 (Ref. 36; herein incorporated by reference in its entirety) was selected as a positive control for autophagy induction, and the vacuolar ATPase inhibitor bafilomycin-A1 (Ref. 37; herein incorporated by reference in its entirety) as a positive control for autophagy inhibition. In each case, DMSO served as a vehicle (negative) control. […]

[1] = tested on: ATG5-deficient Dendra2-LC3 HEK cells; assay: Autophagic flux in Dendra2-LC3 HEK cells with ATG5 siRNA knockdown; format: cell-based, human; details: 20 nM ATG5 siRNA two days prior to imaging, red and green channels
Protocol: FIG. 6, panels a-c. Evaluation of autophagy-modifying compounds in ATG5-deficient cells. […] IB, immunoblot.
FIGS. 8A-E. Time dependent decay of Dendra2-LC3 as an assay of autophagic flux. (FIG. 8A) Dendra2-LC3 reporter cells were imaged prior to photoconversion to measure background TRITC intensity. Immediately following photoconversion with a 5 second pulse of […] light, cells were treated with DMSO, 1 uM Torin1, or 10 nM Bafilomycin-A1 and then were subsequently imaged at the indicated time points. Images are psuedocolored to better highlight intensity differences. (FIGS. 8B-E) Time dependent changes in photoconverted Dendra2-LC3 fluorescence in the TRITC (FIGS. 8B, D) and GFP (FIGS. 8C, E) channels. Gray boxes represent the pre and post-photoconversion time points. […]
The possibility that cell death and toxicity mimics the reduction in GFP intensity that would otherwise denote autophagy induction was also addressed. To avoid confounding from toxicity, the area occupied by cells in each image is calculated using ImageJ software and used as a proxy for cell number; since all wells received the same number of cells, >25% reductions in the area occupied by cells at the end of the experiment indicates toxicity. The formation of Dendra2-LC3 puncta in each condition is scored simultaneously using the ‘analyze particles’ function in ImageJ. […]

SMILES	Hit class in screen of Enzo Autophagy compound library (9H RFP/0H RFP) (Dendra2-LC3 HEK cells; 10 uM, 9 hours after drug addition)	Effect on torin1-induced Dendra2-LC3 degradation (Dendra2-LC3 HEK cells; listed as BafilomycinA1)	Effect on torin1-induced Dendra2-LC3 degradation (Dendra2-LC3 HEK cells; listed as bafilomycin-A1)	Dose dependence of effect on Dendra2-LC3 decay (Dendra2-LC3 HEK cells)	Degradation (decay) of photoconverted Dendra2-LC3 (Dendra2-LC3 HEK cells; listed as bafilomycin)	Degradation (decay) of photoconverted Dendra2-LC3 (Dendra2-LC3 HEK cells; listed as bafilomycin-A1)	Effect of ATG5 knockdown on drug-induced autophagic flux [1]	Effect of ATG5 knockdown on drug-induced autophagic flux ([1]; listed as torin1)	Degradation (decay) of photoconverted Dendra2-LC3 (Dendra2-LC3 HEK cells)
CO/C1=C\C(C)=C\[C@@H](C)[C@@H](O)[C@@H](C)C/C(C)=C/C=C/[C@H](OC)[C@@H]([C@@H](C)[C@@H](O)[C@H](C)[C@@]2(O)C[C@@H](O)[C@H](C)[C@@H](C(C)C)O2)OC1=O [Bafilomycin-A1, bafilomycin-A1]	inhibitor	blocks induction by torin1	completely blocked the effects of torin1	similar, tunable response	extends it	slowed its clearance			
CCC(=O)N1CCN(c2ccc(-n3c(=O)ccc4cnc5ccc(-c6cnc7ccccc7c6)cc5c43)cc2C(F)(F)F)CC1 [Torin1, torin1]				increased in a dose dependent manner			attenuates the effects	attenuates the ability of torin1 to induce autophagic flux; also recorded: mitigated the autophagy-inducing effects	significantly accelerates Dendra2-LC3 degradation; also recorded: accelerates decay; also recorded: significantly enhanced Dendra2-LC3 degradation
